# Biological target: T1, recombinant Arabidopsis ACS5 (Arabidopsis thaliana, UniProt Q37001)
# T1 construct: The full-length cDNA of Arabidopsis ACS5 (At5g65800) was cloned to pETDuet (Novagen); 6His (N); made in house; host or cells: E. coli BL21-CodonPlus (Stratagene)
# T1 sequence (Q37001 1-470): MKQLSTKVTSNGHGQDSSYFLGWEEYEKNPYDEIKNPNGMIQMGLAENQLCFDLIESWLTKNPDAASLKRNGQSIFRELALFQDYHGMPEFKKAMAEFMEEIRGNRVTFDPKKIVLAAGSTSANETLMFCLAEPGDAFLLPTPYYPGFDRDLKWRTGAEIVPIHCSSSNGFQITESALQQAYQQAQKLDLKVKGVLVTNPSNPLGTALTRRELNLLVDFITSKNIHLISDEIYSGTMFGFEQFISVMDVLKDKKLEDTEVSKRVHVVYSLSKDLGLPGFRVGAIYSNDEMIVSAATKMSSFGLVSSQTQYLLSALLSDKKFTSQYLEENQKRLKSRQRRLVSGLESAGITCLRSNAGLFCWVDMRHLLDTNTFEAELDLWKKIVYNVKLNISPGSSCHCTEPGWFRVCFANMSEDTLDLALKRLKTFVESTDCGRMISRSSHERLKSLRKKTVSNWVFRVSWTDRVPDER
# Assay: In vitro ACS activity assay
# Type: biochemical
# Conditions: purified recombinant ACS5, 30 min at 25° C.; read-out: estimated half maximal inhibitory concentration (IC50), ACS5 enzyme activity
# Method: The full-length cDNA of Arabidopsis ACS5 (At5g65800) was cloned to pETDuet (Novagen) to generate pETDuet-6His-ACS5 for expression in E. coli (BL21-CodonPlus, Stratagene) and subsequent purification of the recombinant ACS5 protein. Protein expression was induced at OD600 0.6 by adding 0.4 mM IPTG, and cells were incubated at 16° C. for 18 h. Cells were harvested by centrifugation at 6000×g for 10 min at 4° C. The cell pellet was washed and suspended in 50 mL phosphate buffer (300 mM NaCl, 20 mM phosphate buffer, pH 7.4) containing 20 mM imidazole. Cell lysis was achieved by a continuous high-pressure cell disrupter (TS 2.2 KW, Constant System) with 30 KPsi at 4° C. After washing the cell disrupter twice with 50 ml phosphate buffer containing 20 mM imidazole, the final 150 ml suspension was centrifuged at 10000×g for 30 min at 4° C. The supernatant was applied to a 5-mL HisTrap FF column in an AKTAprime system (GE Healthcare) and was subsequently washed stepwise with 100 mL buffer A (1 mM EDTA, 5 mM DTT, 250 mM HEPES buffer, pH 8.0) containing 20 mM imidazole, then 100 mL buffer A containing 100 mM imidazole. The bound protein was eluted by a 0.1-1.0 M gradient of imidazole in 25 mL buffer A and stored at −80° C. until further analysis.
# ACS activity assay was performed as described (Lizada, et al. (1979) Anal Biochem 100, 140-145; Yamagami, et al. (2003) J Biol Chem 278, 49102-49112), with minor modifications. […] Ethylene level was measured by use of a gas chromatograph (HP 6890, Hewlett-Packard) equipped with a capillary column (19095P-U04, Agilent Technologies) and an autosampler (HP 7694, Agilent Technologies). […]
# To further test this possibility, recombinant Arabidopsis ACS5 protein from bacterial cells was purified for an in vitro enzyme activity assay. […] The quantity of ACC converted to ethylene by recombinant ACS5 is the readout of ACS activity. […]
row,SMILES,IC50 [µM]
1,COc1ccc(C2CC(=O)c3cnc(Nc4ccccc4)nc3C2)cc1 (stereo not drawn) [Compound 7303],0.5
2,Cc1ccc(C2CC(=O)c3cnc(NC4CCCC4)nc3C2)cc1 (stereo not drawn) [Compound 9370],1.4
3,CC1(C)CC(=O)c2cnc(NC3CCCC3)nc2C1 [Compound 9393],3.2
